Patent US20100227887A1 (priority 2009, published 2010)

Columns and labels:
human mGlu 5a receptor = biological target: T1, human mGlu 5a receptor (Homo sapiens, UniProt P41594); experiment: [3H]MPEP competition binding on membranes of EBNA cells transfected with human mGlu 5a receptor; conditions: [3H]MPEP (2 nM) competition, 1 h at 4° C., EBNA cell membranes
T1 construct: expressed in transfected cells; host or cells: EBNA cells (transient transfection); cell membrane homogenates
Method: The pharmacological activity of the compounds was tested using the following method: For binding experiments, cDNA encoding human mGlu 5a receptor was transiently transfected into EBNA cells using a procedure described by Schlaeger and Christensen [Cytotechnology 15:1-13 (1998)]. Cell membrane homogenates were stored at −80° C. until the day of assay where upon they were thawed and resuspended and polytronised in 15 mM Tris-HCl, 120 mM NaCl, 100 mM KCl, 25 mM CaCl2, 25 mM MgCl2 binding buffer at pH 7.4 to a final assay concentration of 20 μg protein/well.
Saturation isotherms were determined by addition of twelve [^3H]MPEP concentrations (0.04-100 nM) to these membranes (in a total volume of 200 μl) for 1 h at 4° C. Competition experiments were performed with a fixed concentration of [^3H]MPEP (2 nM) and IC50 values of test compounds evaluated using 11 concentrations (0.3-10,000 nM). Incubations were performed for 1 h at 4° C.
At the end of the incubation, membranes were filtered onto unifilter (96-well white microplate with bonded GF/C filter preincubated 1 h in 0.1% PEI in wash buffer, Packard Bio-Science, Meriden, Conn.) with a Filtermate 96 harvester (Packard BioScience) and washed 3 times with cold 50 mM Tris-HCl, pH 7.4 buffer. Nonspecific binding was measured in the presence of 10 μM MPEP. The radioactivity on the filter was counted (3 min) on a Packard Top-count microplate scintillation counter with quenching correction after addition of 45 μl of microscint 40 (Canberra Packard S. A., Zürich, Switzerland) and shaking for 20 min.
For binding experiments the Ki values of the compounds tested are given. The Ki value is defined by the following formula: […]
in which the IC50 values are those concentrations of the compounds tested which cause 50% inhibition of the competing radioligand ([^3H]MPEP). L is the concentration of radioligand used in the binding experiment and the Kd value of the radioligand is empirically determined for each batch of membranes prepared.

T1 sequence (P41594 21-1180 isoform P41594-2 limits assumed): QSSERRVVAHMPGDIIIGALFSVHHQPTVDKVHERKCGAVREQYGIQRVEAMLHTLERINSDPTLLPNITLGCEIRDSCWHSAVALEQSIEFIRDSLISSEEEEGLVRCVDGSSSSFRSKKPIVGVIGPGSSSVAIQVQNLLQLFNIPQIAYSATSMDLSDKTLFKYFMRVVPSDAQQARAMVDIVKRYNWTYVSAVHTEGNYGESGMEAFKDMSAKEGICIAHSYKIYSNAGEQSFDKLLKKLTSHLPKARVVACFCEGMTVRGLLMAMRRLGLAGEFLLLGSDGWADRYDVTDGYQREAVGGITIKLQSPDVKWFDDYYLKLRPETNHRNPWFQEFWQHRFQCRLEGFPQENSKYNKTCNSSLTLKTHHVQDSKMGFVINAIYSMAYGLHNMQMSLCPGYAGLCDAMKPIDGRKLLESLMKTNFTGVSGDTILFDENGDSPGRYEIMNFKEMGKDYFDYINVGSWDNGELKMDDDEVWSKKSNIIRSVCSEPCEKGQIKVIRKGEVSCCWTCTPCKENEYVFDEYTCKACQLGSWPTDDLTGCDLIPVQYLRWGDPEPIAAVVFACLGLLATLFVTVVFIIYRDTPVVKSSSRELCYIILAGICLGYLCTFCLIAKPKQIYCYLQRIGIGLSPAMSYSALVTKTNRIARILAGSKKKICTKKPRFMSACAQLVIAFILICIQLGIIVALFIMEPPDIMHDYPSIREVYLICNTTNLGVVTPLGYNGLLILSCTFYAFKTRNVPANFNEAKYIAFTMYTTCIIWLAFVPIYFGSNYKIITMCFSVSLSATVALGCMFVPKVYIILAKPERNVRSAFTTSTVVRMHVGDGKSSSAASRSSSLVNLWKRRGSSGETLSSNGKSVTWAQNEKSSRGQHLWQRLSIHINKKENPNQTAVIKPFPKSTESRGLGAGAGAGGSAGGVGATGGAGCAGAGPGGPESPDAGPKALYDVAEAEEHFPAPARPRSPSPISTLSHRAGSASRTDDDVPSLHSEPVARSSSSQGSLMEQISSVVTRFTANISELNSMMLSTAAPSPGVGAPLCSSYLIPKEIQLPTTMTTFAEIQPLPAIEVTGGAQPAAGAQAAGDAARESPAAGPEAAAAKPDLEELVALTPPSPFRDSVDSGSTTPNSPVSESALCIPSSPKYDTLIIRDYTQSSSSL

Structure (SMILES): Cc1cc(C#N)cc(C(=O)Nc2ccn(C)n2)n1 [Example 1, 4-Cyano-6-methyl-pyridine-2-carboxylic acid (1-methyl-1H-pyrazol-3-yl)-amide]
- Ki (human mGlu 5a receptor): 38 nM
- melting point: 201 °C

Structure (SMILES): Cc1cc(Cl)cc(C(=O)Nc2ccn(C)n2)n1 [Example 2, 4-Chloro-6-methyl-pyridine-2-carboxylic acid (1-methyl-1H-pyrazol-3-yl)-amide]
- Ki (human mGlu 5a receptor): 73 nM
- melting point: 203.5 °C

Structure (SMILES): Cc1cc(C#N)cc(C(=O)Nc2nc(C)cs2)n1 [Example 3, 4-Cyano-6-methyl-pyridine-2-carboxylic acid (4-methyl-thiazol-2-yl)-amide]
- Ki (human mGlu 5a receptor): 15 nM
- melting point: 211 °C

Structure (SMILES): Cc1cc(C#N)cc(C(=O)Nc2ccc(F)cn2)n1 [Example 4, 4-Cyano-6-methyl-pyridine-2-carboxylic acid (5-fluoro-pyridin-2-yl)-amide]
- Ki (human mGlu 5a receptor): 6 nM
- melting point: 204.5 °C

Structure (SMILES): Cc1ccc(NC(=O)c2cc(C#N)cc(C)n2)nc1 [Example 5, 4-Cyano-6-methyl-pyridine-2-carboxylic acid (5-methyl-pyridin-2-yl)-amide]
- Ki (human mGlu 5a receptor): 11 nM
- melting point: 196 °C

Structure (SMILES): Cc1cc(C#N)cc(C(=O)Nc2ccc(C#N)cn2)n1 [Example 6, 4-Cyano-6-methyl-pyridine-2-carboxylic acid (5-cyano-pyridin-2-yl)-amide]
- Ki (human mGlu 5a receptor): 109 nM
- melting point: 279 °C

Structure (SMILES): C#Cc1cc(C)nc(C(=O)Nc2ccn(C)n2)c1 [Example 7, 4-Ethynyl-6-methyl-pyridine-2-carboxylic acid (1-methyl-1H-pyrazol-3-yl)-amide]
- Ki (human mGlu 5a receptor): 33 nM
- melting point: 226.5 °C

Structure (SMILES): Cc1cc(Br)cc(C(=O)Nc2ccc(F)cn2)n1 [Example 8, 4-Bromo-6-methyl-pyridine-2-carboxylic acid (5-fluoro-pyridin-2-yl)-amide]
- Ki (human mGlu 5a receptor): 37 nM
- melting point: 160 °C

Structure (SMILES): Cc1cc(C#N)cc(C(=O)Nc2ccc(Cl)cn2)n1 [Example 9, 4-Cyano-6-methyl-pyridine-2-carboxylic acid (5-chloro-pyridin-2-yl)-amide]
- Ki (human mGlu 5a receptor): 8 nM
- melting point: 233.5 °C

Structure (SMILES): Cc1cc(Br)cc(C(=O)Nc2ccc(F)c(C)n2)n1 [Example 10, 4-Bromo-6-methyl-pyridine-2-carboxylic acid (5-fluoro-6-methyl-pyridin-2-yl)-amide]
- Ki (human mGlu 5a receptor): 61 nM
- melting point: 181.5 °C

Structure (SMILES): Cc1cc(C#N)cc(C(=O)Nc2ccc(F)c(C)n2)n1 [Example 11]
- Ki (human mGlu 5a receptor): 57 nM
- melting point: 222 °C

Structure (SMILES): Cc1cc(C#N)c(C)c(C(=O)Nc2ccn(C)n2)n1 [Example 12, 4-Cyano-3,6-dimethyl-pyridine-2-carboxylic acid (1-methyl-1H-pyrazol-3-yl)-amide]
- Ki (human mGlu 5a receptor): 143 nM
- melting point: 180.5 °C

Structure (SMILES): CC(C)c1cc(C#N)cc(C(=O)Nc2ccn(C)n2)n1 [Example 13, 4-Cyano-6-isopropyl-pyridine-2-carboxylic acid (1-methyl-1H-pyrazol-3-yl)-amide]
- melting point: 174 °C

Structure (SMILES): Cn1ccc(NC(=O)c2cc(C#N)cc(C(F)(F)F)n2)n1 [Example 15, 4-Cyano-6-trifluoromethyl-pyridine-2-carboxylic acid (1-methyl-1H-pyrazol-3-yl)-amide]
- melting point: 190.5 °C

Structure (SMILES): N#Cc1cc(C(=O)Nc2ccc(F)cn2)nc(C(F)(F)F)c1 [Example 16, 4-Cyano-6-trifluoromethyl-pyridine-2-carboxylic acid (5-fluoro-pyridin-2-yl)-amide]
- Ki (human mGlu 5a receptor): 139 nM
- melting point: 186.5 °C

Structure (SMILES): Cc1cc(Cl)cc(C(=O)Nc2ccc(Cl)cn2)n1 [Example 17, 4-Chloro-6-methyl-pyridine-2-carboxylic acid (5-chloro-pyridin-2-yl)-amide]
- melting point: 151 °C

Structure (SMILES): Cc1cc(Cl)cc(C(=O)Nc2ccc(F)cn2)n1 [Example 18, 4-Chloro-6-methyl-pyridine-2-carboxylic acid (5-fluoro-pyridin-2-yl)-amide]
- Ki (human mGlu 5a receptor): 30 nM
- melting point: 156 °C

Structure (SMILES): Cc1ccc(NC(=O)c2cc(Cl)cc(C)n2)nc1 [Example 19, 4-Chloro-6-methyl-pyridine-2-carboxylic acid (5-methyl-pyridin-2-yl)-amide]
- Ki (human mGlu 5a receptor): 109 nM
- melting point: 159 °C

Structure (SMILES): Cc1cc(Cl)cc(C(=O)Nc2nc(C)cs2)n1 [Example 20, 4-Chloro-6-methyl-pyridine-2-carboxylic acid (4-methyl-thiazol-2-yl)-amide]
- Ki (human mGlu 5a receptor): 14 nM
- melting point: 176 °C

Structure (SMILES): CCc1cc(Br)cc(C(=O)Nc2ccc(F)cn2)n1 [Example 21, 4-Bromo-6-ethyl-pyridine-2-carboxylic acid (5-fluoro-pyridin-2-yl)-amide]
- melting point: 123.5 °C

Structure (SMILES): Cc1cc(C#N)cc(C(=O)Nc2ccnc(Cl)c2)n1 [Example 22, 4-Cyano-6-methyl-pyridine-2-carboxylic acid (2-chloro-pyridin-4-yl)-amide]
- Ki (human mGlu 5a receptor): 25 nM
- melting point: 238.5 °C

Structure (SMILES): Cc1cc(C#N)cc(C(=O)Nc2cccc(Cl)n2)n1 [Example 23, 4-Cyano-6-methyl-pyridine-2-carboxylic acid (6-chloro-pyridin-2-yl)-amide]
- Ki (human mGlu 5a receptor): 8 nM
- melting point: 222.5 °C

Structure (SMILES): CCc1cc(C#N)cc(C(=O)Nc2ccn(C)n2)n1 [Example 24, 4-Cyano-6-ethyl-pyridine-2-carboxylic acid (1-methyl-1H-pyrazol-3-yl)-amide]
- Ki (human mGlu 5a receptor): 36 nM
- melting point: 164.5 °C

Structure (SMILES): CCc1cc(C#N)cc(C(=O)Nc2ccc(F)cn2)n1 [Example 25, 4-Cyano-6-ethyl-pyridine-2-carboxylic acid (5-fluoro-pyridin-2-yl)-amide]
- Ki (human mGlu 5a receptor): 11 nM
- melting point: 183.5 °C

Structure (SMILES): Cc1cc(C#N)cc(C(=O)Nc2cccc(Cl)c2)n1 [Example 26, 4-Cyano-6-methyl-pyridine-2-carboxylic acid (3-chloro-phenyl)-amide]
- Ki (human mGlu 5a receptor): 6 nM
- melting point: 147.5 °C

Structure (SMILES): Cc1cc(C#N)c(C)c(C(=O)Nc2ccc(F)cn2)n1 [Example 27, 4-Cyano-3,6-dimethyl-pyridine-2-carboxylic acid (5-fluoro-pyridin-2-yl)-amide]
- Ki (human mGlu 5a receptor): 31 nM
- melting point: 196.5 °C

Structure (SMILES): Cc1cc(C#N)c(C)c(C(=O)Nc2ccc(F)c(C)n2)n1 [Example 28, 4-Cyano-3,6-dimethyl-pyridine-2-carboxylic acid (5-fluoro-6-methyl-pyridin-2-yl)-amide]
- melting point: 201 °C

Structure (SMILES): Cc1cc(C#N)c(C)c(C(=O)Nc2ccc(Cl)cn2)n1 [Example 29, 4-Cyano-3,6-dimethyl-pyridine-2-carboxylic acid (5-chloro-pyridin-2-yl)-amide]
- Ki (human mGlu 5a receptor): 97 nM
- melting point: 264 °C

Structure (SMILES): Cc1csc(NC(=O)c2nc(C)cc(C#N)c2C)n1 [Example 30, 4-Cyano-3,6-dimethyl-pyridine-2-carboxylic acid (4-methyl-thiazol-2-yl)-amide]
- Ki (human mGlu 5a receptor): 37 nM
- melting point: 199.5 °C

Structure (SMILES): Cc1cc(C#N)c(C)c(C(=O)Nc2ccc(C#N)cn2)n1 [Example 31, 4-Cyano-3,6-dimethyl-pyridine-2-carboxylic acid (5-cyano-pyridin-2-yl)-amide]
- melting point: 216 °C

Structure (SMILES): Cc1ccc(NC(=O)c2nc(C)cc(C#N)c2C)nc1 [Example 32, 4-Cyano-3,6-dimethyl-pyridine-2-carboxylic acid (5-methyl-pyridin-2-yl)-amide]
- melting point: 212.5 °C

Structure (SMILES): N#Cc1cc(C(=O)Nc2ccc(Cl)cn2)nc(C(F)(F)F)c1 [Example 33, 4-Cyano-6-trifluoromethyl-pyridine-2-carboxylic acid (5-chloro-pyridin-2-yl)-amide]
- melting point: 208 °C

Structure (SMILES): Cc1cc(Cl)cc(C(=O)Nc2ccnc(Cl)c2)n1 [Example 34, 4-Chloro-6-methyl-pyridine-2-carboxylic acid (2-chloro-pyridin-4-yl)-amide]
- melting point: 221 °C

Structure (SMILES): Cc1cc(Cl)cc(C(=O)Nc2cccc(Cl)n2)n1 [Example 35, 4-Chloro-6-methyl-pyridine-2-carboxylic acid (6-chloro-pyridin-2-yl)-amide]
- Ki (human mGlu 5a receptor): 34 nM
- melting point: 176 °C

Structure (SMILES): Cc1cc(C#N)cc(C(=O)Nc2ccc(F)cc2)n1 [Example 39, 4-Cyano-6-methyl-pyridine-2-carboxylic acid (4-fluoro-phenyl)-amide]
- melting point: 189 °C

Structure (SMILES): Cc1cc(Cl)cc(C(=O)Nc2cccc(F)c2)n1 [Example 52, 4-Chloro-6-methyl-pyridine-2-carboxylic acid (3-fluoro-phenyl)-amide]
- melting point: 123 °C

Structure (SMILES): Cc1cc(NC(=O)c2cc(Cl)cc(C)n2)ccn1 [Example 53, 4-Chloro-6-methyl-pyridine-2-carboxylic acid (2-methyl-pyridin-4-yl)-amide]
- melting point: 162 °C
